Measurements as given in BindingDB's records for doi:10.1021/jm030452x (University of Arizona, 2004).

These compounds were tested against Melanocyte-stimulating hormone receptor (Rana pipiens) (assay: Inhibition of 1 nM alpha melanocortin stimulating hormone (MSH) from frog skin).

IC50 | SMILES
1 µM | C[C@@H](O)[C@H](NC(=O)[C@H]1NC(=O)[C@H](Cc2c[nH]c3ccccc23)NC(=O)[C@H](CCCN=C(N)N)NC(=O)[C@@H](Cc2c[nH]c3ccccc23)NC(=O)[C@H](Cc2ccc(O)cc2)NC(=O)[C@@H](NC(=O)[C@H](N)Cc2ccccc2)CSSC1(C)C)C(N)=O [1N-(1-carbamoyl-2-hydroxypropyl)-15-[3-amino(imino)methylaminopropyl]-6-(1-amino-2-phenylethylcarboxamido)-9-(4-hydroxybenzyl)-12,18-di(1H-3-indolylmethyl)-2,2-dimethyl-7,10,13,16,19-pentaoxo-3,4-dithia-8,11,14,17,20-pentaazacycloicosane-1-carboxami]
1 µM | C[C@@H](O)[C@H](NC(=O)[C@H]1NC(=O)[C@H](CO)NC(=O)[C@H](CCCNC(=N)N)NC(=O)[C@@H](Cc2c[nH]c3ccccc23)NC(=O)[C@H](Cc2ccc(O)cc2)NC(=O)[C@@H](NC(=O)[C@H](N)Cc2ccccc2)CSSC1(C)C)C(N)=O [1N-(1-carbamoyl-2-hydroxypropyl)-15-[3-amino(imino)methylaminopropyl]-6-(1-amino-2-phenylethylcarboxamido)-9-(4-hydroxybenzyl)-18-hydroxymethyl-12-(1H-3-indolylmethyl)-2,2-dimethyl-7,10,13,16,19-pentaoxo-3,4-dithia-8,11,14,17,20-pentaazacycloicosane]
1 µM | C[C@@H](O)[C@H](NC(=O)[C@H]1NC(=O)[C@H](Cc2c[nH]c3ccccc23)NC(=O)[C@H](CCCN=C(N)N)NC(=O)[C@@H](Cc2c[nH]c3ccccc23)NC(=O)[C@H](Cc2ccccc2)NC(=O)[C@@H](NC(=O)[C@H](N)Cc2ccccc2)CSSC1(C)C)C(N)=O [1N-(1-carbamoyl-2-hydroxypropyl)-15-[3-amino(imino)methylaminopropyl]-6-(1-amino-2-phenylethylcarboxamido)-9-benzyl-12,18-di(1H-3-indolylmethyl)-2,2-dimethyl-7,10,13,16,19-pentaoxo-3,4-dithia-8,11,14,17,20-pentaazacycloicosane-1-carboxamide]
0.1 µM | C[C@@H](O)[C@H](NC(=O)[C@H]1NC(=O)[C@H]([C@@H](C)O)NC(=O)[C@H](CCCNC(=N)N)NC(=O)[C@@H](Cc2c[nH]c3ccccc23)NC(=O)[C@H](Cc2ccc(I)cc2)NC(=O)[C@@H](NC(=O)[C@H](N)Cc2ccccc2)CSSC1(C)C)C(N)=O [1N-(1-carbamoyl-2-hydroxypropyl)-15-[3-amino(imino)methylaminopropyl]-6-(1-amino-2-phenylethylcarboxamido)-18-(1-hydroxyethyl)-12-(1H-3-indolylmethyl)-9-(4-iodobenzyl)-2,2-dimethyl-7,10,13,16,19-pentaoxo-3,4-dithia-8,11,14,17,20-pentaazacycloicosane]
1 µM | C[C@H](O)[C@@H](NC(=O)[C@H]1CSSC[C@H](NC(=O)[C@@H](N)Cc2ccccc2)C(=O)N[C@@H](Cc2c[nH]cn2)C(=O)N2Cc3ccccc3C[C@H]2C(=O)N[C@@H](CCCN=C(N)N)C(=O)N[C@H](Cc2c[nH]c3ccccc23)C(=O)N1)C(N)=O [(2R,3S)-2-{[(3S,6R,9S,14R,17S)-14-[(2S)-2-amino-3-phenylpropanamido]-3-{3-[(diaminomethylidene)amino]propyl}-17-(1H-imidazol-4-ylmethyl)-6-(1H-indol-3-ylmethyl)-1,4,7,15,18-pentaoxo-1H,2H,3H,4H,5H,6H,7H,8H,9H,10H,13H,14H,15H,16H,17H,18H,20H,25H,25aH-isoquinolino[3,2-m]1,2-dithia-5,8,11,14,17-pentaazacycloicosan-9-yl]formamido}-3-hydroxybutanamide]

These compounds were tested against Melanocortin receptor 1 (Rana pipiens) (assay: Effective concentration required for maximum agonist response at melanocortin 1 receptor from frog skin.).

SMILES | EC50
C[C@@H](O)[C@H](NC(=O)[C@@H]1CCCCNC(=O)C[C@H](NC(=O)[C@H](N)Cc2ccccc2)C(=O)N[C@@H](Cc2cnc[nH]2)C(=O)N[C@H](Cc2ccccc2)C(=O)N[C@@H](CCCNC(=N)N)C(=O)N[C@@H](Cc2c[nH]c3ccccc23)C(=O)N1)C(N)=O [1N-(1-carbamoyl-2-hydroxypropyl)-7-[3-amino(imino)methylaminopropyl]-16-(1-amino-2-phenylethylcarboxamido)-10-benzyl-13-(1H-5-imidazolylmethyl)-4-(1H-3-indolylmethyl)-3,6,9,12,15,18-hexaoxo-2,5,8,11,14,19-hexaazacyclotricosane-1-carboxamide] | 0.0001 µM
C[C@@H](O)[C@H](NC(=O)[C@@H]1CSSC[C@H](NC(=O)[C@H](N)Cc2ccccc2)C(=O)N[C@@H](Cc2cnc[nH]2)C(=O)N[C@@H](Cc2cccc3ccccc23)C(=O)N[C@@H](CCCNC(=N)N)C(=O)N[C@H](Cc2c[nH]c3ccccc23)C(=O)N1)C(N)=O [1N-(1-carbamoyl-2-hydroxypropyl)-15-[3-amino(imino)methylaminopropyl]-6-(1-amino-2-phenylethylcarboxamido)-9-(1H-5-imidazolylmethyl)-18-(1H-3-indolylmethyl)-12-(1-naphthylmethyl)-7,10,13,16,19-pentaoxo-3,4-dithia-8,11,14,17,20-pentaazacycloicosan] | 5 µM
C[C@H](O)[C@@H](NC(=O)[C@H]1CSSC[C@H](NC(=O)[C@H](N)Cc2ccccc2)C(=O)N[C@@H](Cc2cnc[nH]2)C(=O)N[C@@H](Cc2ccc(Cl)cc2)C(=O)N[C@@H](CCCNC(=N)N)C(=O)N[C@H](Cc2c[nH]c3ccccc23)C(=O)N1)C(N)=O [1N-(1-carbamoyl-2-hydroxypropyl)-15-[3-amino(imino)methylaminopropyl]-6-(1-amino-2-phenylethylcarboxamido)-12-(4-chlorobenzyl)-9-(1H-5-imidazolylmethyl)-18-(1H-3-indolylmethyl)-7,10,13,16,19-pentaoxo-3,4-dithia-8,11,14,17,20-pentaazacycloicosane-] | 0.03 µM
C[C@@H](O)[C@H](NC(=O)[C@@H]1CSSC[C@H](NC(=O)[C@H](N)Cc2ccccc2)C(=O)N[C@@H](Cc2cnc[nH]2)C(=O)N[C@@H](Cc2ccc(F)cc2)C(=O)N[C@@H](CCCNC(=N)N)C(=O)N[C@H](Cc2c[nH]c3ccccc23)C(=O)N1)C(N)=O [1N-(1-carbamoyl-2-hydroxypropyl)-15-[3-amino(imino)methylaminopropyl]-6-(1-amino-2-phenylethylcarboxamido)-12-(4-fluorobenzyl)-9-(1H-5-imidazolylmethyl)-18-(1H-3-indolylmethyl)-7,10,13,16,19-pentaoxo-3,4-dithia-8,11,14,17,20-pentaazacycloicosane-] | 1 µM

More lines, now with the values ahead:

EC50 | SMILES
3 µM | C[C@@H](O)[C@H](NC(=O)[C@H]1CSSC[C@H](NC(=O)[C@@H](N)Cc2ccccc2)C(=O)N[C@@H](Cc2cnc[nH]2)C(=O)N[C@H](Cc2ccccc2)C(=O)N[C@@H](CCCNC(=N)N)C(=O)N[C@H](Cc2c[nH]c3ccccc23)C(=O)N1)C(N)=O [1N-(1-carbamoyl-2-hydroxypropyl)-15-[3-amino(imino)methylaminopropyl]-6-(1-amino-2-phenylethylcarboxamido)-12-benzyl-9-(1H-5-imidazolylmethyl)-18-(1H-3-indolylmethyl)-7,10,13,16,19-pentaoxo-3,4-dithia-8,11,14,17,20-pentaazacycloicosane-1-carboxam]
0.01 µM | C[C@@H](O)[C@H](NC(=O)[C@H]1CSSC[C@H](NC(=O)[C@H](N)Cc2ccccc2)C(=O)N[C@@H](Cc2cnc[nH]2)C(=O)N[C@@H](Cc2ccccc2)C(=O)N[C@@H](CCCNC(=N)N)C(=O)N[C@H](Cc2c[nH]c3ccccc23)C(=O)N1)C(N)=O [1N-(1-carbamoyl-2-hydroxypropyl)-15-[3-amino(imino)methylaminopropyl]-6-(1-amino-2-phenylethylcarboxamido)-12-benzyl-9-(1H-5-imidazolylmethyl)-18-(1H-3-indolylmethyl)-7,10,13,16,19-pentaoxo-3,4-dithia-8,11,14,17,20-pentaazacycloicosane-1-carboxam]
1 µM | C[C@@H](O)[C@H](NC(=O)[C@@H]1CCSSC[C@H](NC(=O)[C@H](N)Cc2ccccc2)C(=O)N[C@@H](Cc2cnc[nH]2)C(=O)N[C@H](Cc2ccccc2)C(=O)N[C@@H](CCCNC(=N)N)C(=O)N[C@@H](Cc2c[nH]c3ccccc23)C(=O)N1)C(N)=O [1N-(1-carbamoyl-2-hydroxypropyl)-16-[3-amino(imino)methylaminopropyl]-7-(1-amino-2-phenylethylcarboxamido)-13-benzyl-10-(1H-5-imidazolylmethyl)-19-(1H-3-indolylmethyl)-8,11,14,17,20-pentaoxo-4,5-dithia-9,12,15,18,21-pentaazacyclohenicosane-1-carb]
0.1 µM | C[C@@H](O)[C@H](NC(=O)[C@H]1NC(=O)[C@H](Cc2c[nH]c3ccccc23)NC(=O)[C@H](CCCNC(=N)N)NC(=O)[C@@H](Cc2ccccc2)NC(=O)[C@H](Cc2cnc[nH]2)NC(=O)[C@@H](NC(=O)[C@H](N)Cc2ccccc2)CSSC1(C)C)C(N)=O [H-D-Phe-c[Cys-His-D-Phe-Arg-Trp-Pen]-Thr-NH2]
0.0003 µM | C[C@@H](O)[C@H](NC(=O)[C@@H]1CSSCC[C@H](NC(=O)[C@H](N)Cc2ccccc2)C(=O)N[C@@H](Cc2cnc[nH]2)C(=O)N[C@H](Cc2ccccc2)C(=O)N[C@@H](CCCNC(=N)N)C(=O)N[C@@H](Cc2c[nH]c3ccccc23)C(=O)N1)C(N)=O [H-D-Phe-c[Hcy-His-D-Phe-Arg-Trp-Cys]-Thr-NH2]
